Results on four compounds are retold here after PubChem BioAssay AID1963825 (Molecular Pharmacology Branch, DTP, NCI, 2024).

This test in a line: Anticancer human tumor 997537-175-T-J1-PDC patient-derived colon adenocarcinoma cell line growth inhibition [POLQ]. As to conditions: 997537-175-T-J1-PDC complex spheroid viability, combination with POLQ inhibitors; for IC50: curve of first compound; for viability, T/C: stronger effect = lower value. The method, boiled down: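 PDC + HUVEC + MSC complex spheroids; POLQ inhibitors ± partner drugs; top conc. at/near clinical Cmax, else 10 microM (SN-38 1 microM), half-log dilutions; 37 degrees C, 5% CO2.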

[1] abbreviates: second compound 0.0316 µM, first compound 0.0316 µM.
Setting [2] is: second compound 0.0316 µM, first compound 0.1 µM.
Where [3] appears, read: second compound 0.0316 µM, first compound 0.316 µM.
The mark [4] stands for this setting: second compound 0.0316 µM, first compound 1 µM.
Setting [5] is: second compound 0.1 µM, first compound 0.0316 µM.
Where [6] appears, read: second compound 0.1 µM, first compound 0.1 µM.
The mark [7] stands for this setting: second compound 0.1 µM, first compound 0.316 µM.
[8] abbreviates: second compound 0.1 µM, first compound 1 µM.
Where [9] appears, read: second compound 0.316 µM, first compound 0.0316 µM.
[10] abbreviates: second compound 0.316 µM, first compound 0.1 µM.
[11] abbreviates: second compound 0.316 µM, first compound 0.316 µM.
Where [12] appears, read: second compound 0.316 µM, first compound 1 µM.
The mark [13] stands for this setting: second compound 1 µM, first compound 0.0316 µM.
[14] abbreviates: second compound 1 µM, first compound 0.1 µM.
The mark [15] stands for this setting: second compound 1 µM, first compound 0.316 µM.
The mark [16] stands for this setting: second compound 1 µM, first compound 1 µM.
Setting [17] is: second compound 3.16 µM, first compound 0.0316 µM.
Setting [18] is: second compound 3.16 µM, first compound 0.1 µM.
Setting [19] is: second compound 3.16 µM, first compound 0.316 µM.
Setting [20] is: second compound 3.16 µM, first compound 1 µM.
Setting [21] is: second compound 10 µM, first compound 0.0316 µM.
Where [22] appears, read: second compound 10 µM, first compound 0.1 µM.
[23] abbreviates: second compound 10 µM, first compound 0.316 µM.
The mark [24] stands for this setting: second compound 10 µM, first compound 1 µM.

Values joined by “and” are separate entries in the source; they are usually repeats but may differ in a detail not shown here. Equal entries are not always repeated.
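Also: luminescence signal used as a surrogate for viable cells; spheroids exposed to drugs for seven days before readout.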

The term IC50 denotes the concentration needed to halve the response being measured. One may read the viability, T/C as the ratio of treated to control. With `COc1cc2cc(C(=O)CCC(=O)O)sc2cc1OC` + Cc1cccc(N(C)C(=O)C2C(O)CCN2c2nc(C)cc(C(F)(F)F)c2C#N)c1, the IC50 reads like this: (second compound 0.0316 µM) > 10 µM; (second compound 0.1 µM) > 10 µM; (second compound 0.316 µM) > 10 µM; (second compound 1 µM) > 10 µM; (second compound 3.16 µM) > 10 µM; (second compound 10 µM) > 10 µM. In addition, the viability, T/C is 110% under setting [1]; 102% under setting [2]; 99.3% under setting [3]; 111% under setting [4]; 98.4% (second compound 0.0316 µM, first compound 3.16 µM); 88.3% (second compound 0.0316 µM, first compound 10 µM). The viability, T/C under setting [5] is 98.7%; the viability, T/C under setting [6] is 120%; the viability, T/C under setting [7] was 94.7%; the viability, T/C under setting [8] was 105%; the viability, T/C (second compound 0.1 µM, first compound 3.16 µM) was 99.3%; the viability, T/C (second compound 0.1 µM, first compound 10 µM) was 93.3%. Further, the viability, T/C reads like this: under setting [9], 105%; under setting [10], 97.7%; under setting [11], 87.5%; under setting [12], 80.8%; (second compound 0.316 µM, first compound 3.16 µM) 98.6%; (second compound 0.316 µM, first compound 10 µM) 93.6%. Besides, the viability, T/C is, setting by setting: under setting [13], 108%; under setting [14], 90.5%; under setting [15], 105%; under setting [16], 102%; (second compound 1 µM, first compound 3.16 µM) 101%; (second compound 1 µM, first compound 10 µM) 92.8%. Moreover, the viability, T/C runs as follows: under setting [17], 94.5%; under setting [18], 121%; under setting [19], 90.5%; under setting [20], 96.2%; (second compound 3.16 µM, first compound 3.16 µM) 115%; (second compound 3.16 µM, first compound 10 µM) 97.8%. Also, the viability, T/C reads like this: under setting [21], 98%; under setting [22], 104%; under setting [23], 107%; under setting [24], 105%; (second compound 10 µM, first compound 3.16 µM) 118%; (second compound 10 µM, first compound 10 µM) 87.3%.

Consider `C=CCn1c(=O)c2cnc(Nc3ccc(N4CCN(C)CC4)cc3)nc2n1-c1cccc(C(C)(C)O)n1` + COC1C(OC(N)=O)C(O)C(Oc2ccc3c(O)c(NC(=O)c4ccc(O)c(CC=C(C)C)c4)c(=O)oc3c2C)OC1(C)C, for which the IC50 was > 1 µM (second compound 0.0316 µM); > 1 µM (second compound 0.1 µM); > 1 µM (second compound 0.316 µM); > 1 µM (second compound 1 µM); > 1 µM (second compound 3.16 µM); > 1 µM (second compound 10 µM). Further, the viability, T/C was 92.8% (second compound 0.0316 µM, first compound 0.00316 µM); 102% (second compound 0.0316 µM, first compound 0.01 µM); 105% under setting [1]; 92.1% under setting [2]; 105% under setting [3]; 71% under setting [4]. Also, the viability, T/C (second compound 0.1 µM, first compound 0.00316 µM) was 115%; the viability, T/C (second compound 0.1 µM, first compound 0.01 µM) was 106%; the viability, T/C under setting [5] was 91.9%; the viability, T/C under setting [6] is 92.2%; the viability, T/C under setting [7] is 81.7%; the viability, T/C under setting [8] is 66.2%. For the same compound, the viability, T/C reads like this: (second compound 0.316 µM, first compound 0.00316 µM) 88.5%; (second compound 0.316 µM, first compound 0.01 µM) 101%; under setting [9], 103%; under setting [10], 103%; under setting [11], 92.5%; under setting [12], 56.5%. Besides, the viability, T/C by setting is: (second compound 1 µM, first compound 0.00316 µM) 103%; (second compound 1 µM, first compound 0.01 µM) 98.6%; under setting [13], 98.2%; under setting [14], 90.3%; under setting [15], 102%; under setting [16], 87.8%. In addition, the viability, T/C reads like this: (second compound 3.16 µM, first compound 0.00316 µM) 115%; (second compound 3.16 µM, first compound 0.01 µM) 93.9%; under setting [17], 96.6%; under setting [18], 99.1%; under setting [19], 90.2%; under setting [20], 64.1%. For the same compound, the viability, T/C reads like this: (second compound 10 µM, first compound 0.00316 µM) 98%; (second compound 10 µM, first compound 0.01 µM) 82.5%; under setting [21], 93.3%; under setting [22], 81.4%; under setting [23], 78.5%; under setting [24], 56.4%.

Take `CC(C)n1c(=O)n(C)c2cnc3cc(F)c(-c4ccc(OCCCN5CCCCC5)nc4)cc3c21`: the viability, T/C was 90.1% and 93% and 37.9% (compound 0.0316 µM); 103% and 96% and 38.9% (compound 0.1 µM); 100% and 83.5% and 34.2% (compound 0.316 µM); 97.9% and 102% and 32.9% (compound 1 µM); 85.7% and 92.1% and 37.8% (compound 3.16 µM); 73.3% and 87.2% and 43.2% (compound 10 µM).

Regarding `CC1COCCN1c1cc(-c2ccnn2C)c2ccnc(-c3ccn[nH]3)c2n1` (stereo unspecified), the viability, T/C is 94.7% and 97.9% and 86.9% (compound 0.0316 µM); 62% and 63.5% and 79.7% (compound 0.1 µM); 64.5% and 49% and 65.9% (compound 0.316 µM); 44.2% and 44.4% and 50.7% (compound 1 µM); 68% and 32.4% and 51.1% (compound 3.16 µM); 60.6% and 53.7% and 53.6% (compound 10 µM).
